These compounds were tested against Histamine H1 receptor (Cavia porcellus, UniProt P31389) (assay: H1-Histamine receptor agonism on Guinea pig aorta was evaluated (SEM 0.03-0.18)).
Chain of Histamine H1 receptor (P31389 whole entry): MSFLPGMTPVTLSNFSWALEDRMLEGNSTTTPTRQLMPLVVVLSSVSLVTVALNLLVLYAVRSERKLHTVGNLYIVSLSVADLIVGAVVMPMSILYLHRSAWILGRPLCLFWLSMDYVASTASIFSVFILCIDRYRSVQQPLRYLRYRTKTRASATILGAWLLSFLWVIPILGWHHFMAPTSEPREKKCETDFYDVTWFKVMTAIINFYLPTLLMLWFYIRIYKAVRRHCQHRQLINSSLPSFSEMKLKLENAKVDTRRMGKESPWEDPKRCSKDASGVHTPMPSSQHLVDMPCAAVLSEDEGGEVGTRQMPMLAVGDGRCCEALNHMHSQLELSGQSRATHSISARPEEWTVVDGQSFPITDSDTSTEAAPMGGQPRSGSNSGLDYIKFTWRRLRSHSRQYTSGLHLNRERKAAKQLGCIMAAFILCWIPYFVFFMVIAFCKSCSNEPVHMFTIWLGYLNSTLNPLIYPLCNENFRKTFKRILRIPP
`NCCc1cnc(-c2cccc(C(F)(F)F)c2)[nH]1` gave an EC50 of 1.28 µM.
For `NCCc1c[nH]c(-c2ccccc2)n1`, the EC50 was 6.3 µM.
`NCCc1c[nH]c(-c2cccs2)n1` was tested, and the EC50 was 9.99 µM.
Work on `NCCc1c[nH]c(Cc2cccs2)n1` yielded an EC50 of 147 µM.
Compound `NCCc1c[nH]c(-c2ccc[nH]2)n1` has an EC50 of 10.2 µM.
In the case of `NCCc1c[nH]c(Cc2ccsc2)n1`, the EC50 is reported as 128 µM.
In the case of `NCCc1c[nH]c(-c2csc(Br)c2)n1`, the EC50 is reported as 11.4 µM.
For `NCCc1c[nH]c(-c2ccco2)n1`, the EC50 was 5.37 µM.
`NCCc1c[nH]c(-c2cccc(I)c2)n1` gave an EC50 of 2.57 µM.
Compound `NCCc1c[nH]c(-c2ccsc2)n1` has an EC50 of 6.16 µM.
Compound `NCCc1c[nH]c(Cc2ccccc2Cl)n1` has an EC50 of 575 µM.
Work on `NCCc1c[nH]c(Cc2cccc(Cl)c2)n1` yielded an EC50 of 288 µM.
For `NCCc1nccs1` [2-(2-aminoethyl)thiazole], the EC50 was 6.76 µM.
